Test results published in patent publication US20230085307A1, “PYRIDAZINONE COMPOUND AND HERBICIDE” (NISSAN CHEMICAL CORPORATION, priority 2019, published 2023).

Tests used:
Chinese sprangletop = test: Test Example 3: herbicidal effect by foliage application, Wagner pot (Table 18, symbol D); assay type: in vivo, chinese sprangletop (Leptochloa chinensis)
In short: (§1)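 Plants were sown in alluvial soil held under 0.1–0.5 cm standing water and grown 14 days in a greenhouse at 25–30 °C. An emulsifiable formulation, water-diluted to the set dose, was then sprayed onto the foliage, and effects were scored three weeks later using previously defined criteria.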

redroot pigweed [1] = test: Test Example 4: herbicidal effect by soil treatment (Table 19, symbol N); assay type: in vivo, redroot pigweed (Amaranthus retroflexus); conditions: amount of applied herbicide 320 g/ha
In short: (§2)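 Three weeks of greenhouse growth at 25° C. to 30° C. followed a uniform surface spray of water-diluted emulsion at a predetermined herbicide amount. Seeds had been sown beforehand under about 1.5 cm of sterilized diluvial soil. Grading followed criteria set out in an earlier test.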

rice flat sedge = test: Test Example 3: herbicidal effect by foliage application, Wagner pot (Table 18, symbol E); assay type: in vivo, rice flat sedge (Cyperus iria)
In short: as §1

barnyard grass [2] = test: Test Example 4: herbicidal effect by soil treatment (Table 19, symbol H); assay type: in vivo, barnyard grass (Echinochloa crus-galli); conditions: amount of applied herbicide 320 g/ha
In short: as §2

lambsquarters [3] = test: Test Example 5: herbicidal effect by foliage application, plastic box (Table 20, symbol O); assay type: in vivo, lambsquarters (Chenopodium album)
In short: (§3)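 Plants sown in sterilized diluvial soil and grown 14 days in a greenhouse at 25° C to 30° C, then sprayed on the foliage with the compound's emulsion diluted in water to a predetermined herbicide amount. Injury to weeds and crops scored three weeks after application on a visual rating scale.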

velvetleaf [4] = test: Test Example 4: herbicidal effect by soil treatment (Table 19, symbol M); assay type: in vivo, velvetleaf (Abutilon theophrasti); conditions: amount of applied herbicide 320 g/ha
In short: as §2

green foxtail [5] = test: Test Example 4: herbicidal effect by soil treatment (Table 19, symbol G); assay type: in vivo, green foxtail (Setaria viridis); conditions: amount of applied herbicide 320 g/ha
In short: as §2

Japanese bulrush [6] = test: Test Example 2: herbicidal activity, application during weed generation under submerged conditions (Table 17, symbol B); assay type: in vivo, Japanese bulrush (Schoenoplectus juncoides); conditions: AAH 320 g/ha; application during weed generation, submerged conditions
In short: (§4)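 In this pot test, flooded alluvial soil (water depth 4 cm) holds all three species sown as a mixture. Once seedlings have one to two leaves, the compound's emulsion, thinned with water to the intended dose, is poured on the water; grading follows after three weeks on the earlier criteria.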

green foxtail [7] = test: Test Example 5: herbicidal effect by foliage application, plastic box (Table 20, symbol G); assay type: in vivo, green foxtail (Setaria viridis)
In short: as §3

late watergrass [8] = test: Test Example 2: herbicidal activity, application during weed generation under submerged conditions (Table 17, symbol A); assay type: in vivo, late watergrass (Echinochloa oryzicola); conditions: AAH 320 g/ha; application during weed generation, submerged conditions
In short: as §4

barnyard grass [9] = test: Test Example 5: herbicidal effect by foliage application, plastic box (Table 20, symbol H); assay type: in vivo, barnyard grass (Echinochloa crus-galli)
In short: as §3

oval-leafed pondweed [10] = test: Test Example 2: herbicidal activity, application during weed generation under submerged conditions (Table 17, symbol C); assay type: in vivo, oval-leafed pondweed (Monochoria vaginalis); conditions: AAH 320 g/ha; application during weed generation, submerged conditions
In short: as §4

redroot pigweed [11] = test: Test Example 5: herbicidal effect by foliage application, plastic box (Table 20, symbol N); assay type: in vivo, redroot pigweed (Amaranthus retroflexus)
In short: as §3

southern crabgrass [12] = test: Test Example 4: herbicidal effect by soil treatment (Table 19, symbol F); assay type: in vivo, southern crabgrass (Digitaria ciliaris); conditions: amount of applied herbicide 320 g/ha
In short: as §2

velvetleaf [13] = test: Test Example 5: herbicidal effect by foliage application, plastic box (Table 20, symbol M); assay type: in vivo, velvetleaf (Abutilon theophrasti)
In short: as §3

barnyard grass [14] = test: Test Example 3: herbicidal effect by foliage application, Wagner pot (Table 18, symbol H); assay type: in vivo, barnyard grass (Echinochloa crus-galli)
In short: as §1

southern crabgrass [15] = test: Test Example 5: herbicidal effect by foliage application, plastic box (Table 20, symbol F); assay type: in vivo, southern crabgrass (Digitaria ciliaris)
In short: as §3

oval-leafed pondweed [16] = test: Test Example 1: herbicidal activity, application before weed generation under submerged conditions (Table 16, symbol C); assay type: in vivo, oval-leafed pondweed (Monochoria vaginalis); conditions: amount of applied herbicide 320 g/ha
In short: (§5)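 Alluvial soil was flooded to 4 cm depth, weed seeds were sown mixed and 2.5-leaf rice seedlings were transplanted. On sowing day, the compound's emulsion, diluted in water to a set dose, was applied to the water surface. Plants grew at 25–30 °C and were scored 0–5 after three weeks.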

lambsquarters [17] = test: Test Example 4: herbicidal effect by soil treatment (Table 19, symbol O); assay type: in vivo, lambsquarters (Chenopodium album); conditions: amount of applied herbicide 320 g/ha
In short: as §2

late watergrass [18] = test: Test Example 1: herbicidal activity, application before weed generation under submerged conditions (Table 16, symbol A); assay type: in vivo, late watergrass (Echinochloa oryzicola); conditions: amount of applied herbicide 320 g/ha
In short: as §5

Japanese bulrush [19] = test: Test Example 1: herbicidal activity, application before weed generation under submerged conditions (Table 16, symbol B); assay type: in vivo, Japanese bulrush (Schoenoplectus juncoides); conditions: amount of applied herbicide 320 g/ha
In short: as §5

blackgrass = test: Test Example 5: herbicidal effect by foliage application, plastic box (Table 20, symbol J); assay type: in vivo, blackgrass (Alopecurus myosuroides); conditions: amount of applied herbicide 320 g/ha; foliage application after 14-day growth; evaluated three weeks after application
In short: as §3

persian speedwell = test: Test Example 5: herbicidal effect by foliage application, plastic box (Table 20, symbol R); assay type: in vivo, Persian speedwell (Veronica persica); conditions: amount of applied herbicide 320 g/ha; foliage application after 14-day growth; evaluated three weeks after application
In short: as §3

windgrass = test: Test Example 5: herbicidal effect by foliage application, plastic box (Table 20, symbol L); assay type: in vivo, windgrass (Apera spica-venti); conditions: amount of applied herbicide 320 g/ha; foliage application after 14-day growth; evaluated three weeks after application
In short: as §3

wild oat = test: Test Example 5: herbicidal effect by foliage application, plastic box (Table 20, symbol I); assay type: in vivo, wild oat (Avena fatua); conditions: amount of applied herbicide 320 g/ha; foliage application after 14-day growth; evaluated three weeks after application
In short: as §3

chickweed = test: Test Example 5: herbicidal effect by foliage application, plastic box (Table 20, symbol P); assay type: in vivo, common chickweed (Stellaria media); conditions: amount of applied herbicide 320 g/ha; foliage application after 14-day growth; evaluated three weeks after application
In short: as §3

[20] = amount of applied herbicide 320 g/ha
[21] = foliage application, 320 g/ha, three weeks after application
[22] = amount of applied herbicide 320 g/ha, foliage application after 14-day growth, evaluated three weeks after application

COCC[S+]([O-])c1ccc(-c2sc3ccc(F)cc3c2-c2c(O)c(C)nn(C)c2=O)cc1 (centres unmarked) [2-454]
herbicidal effect on D: Chinese sprangletop (Chinese sprangletop; [20]): 2 (Herbicidal rate of 20% or more and less than 40%) | herbicidal effect, N: redroot pigweed (redroot pigweed [1]): 5 (Herbicidal rate of 90% or more (almost completely withered)) | herbicidal effect on E: rice flat sedge (rice flat sedge; [20]): 5 (Herbicidal rate of 90% or more (almost completely withered)) | herbicidal effect, H: barnyard grass (barnyard grass [2]): 4 (Herbicidal rate of 70% or more and less than 90%) | O: lambsquarters, herbicidal effect grade (lambsquarters [3]; [21]): 5 (Herbicidal rate of 90% or more (almost completely withered)) | herbicidal effect, M: velvetleaf (velvetleaf [4]): 3 (Herbicidal rate of 40% or more and less than 70%) | herbicidal effect, G: green foxtail (green foxtail [5]): 5 (Herbicidal rate of 90% or more (almost completely withered)) | herbicidal effect rating, B: Japanese bulrush (Japanese bulrush [6]): 0 (Herbicidal rate of 5% or less (almost no effect)) | G: green foxtail, herbicidal effect grade (green foxtail [7]; [21]): 5 (Herbicidal rate of 90% or more (almost completely withered)) | herbicidal effect rating, A: late watergrass (late watergrass [8]): 2 (Herbicidal rate of 20% or more and less than 40%) | H: barnyard grass, herbicidal effect grade (barnyard grass [9]; [21]): 5 (Herbicidal rate of 90% or more (almost completely withered)) | herbicidal effect rating, C: oval-leafed pondweed (oval-leafed pondweed [10]): 0 (Herbicidal rate of 5% or less (almost no effect)) | N: redroot pigweed, herbicidal effect grade (redroot pigweed [11]; [21]): 5 (Herbicidal rate of 90% or more (almost completely withered)) | herbicidal effect, F: southern crabgrass (southern crabgrass [12]): 5 (Herbicidal rate of 90% or more (almost completely withered)) | M: velvetleaf, herbicidal effect grade (velvetleaf [13]; [21]): 5 (Herbicidal rate of 90% or more (almost completely withered)) | herbicidal effect on H: barnyard grass (barnyard grass [14]; [20]): 5 (Herbicidal rate of 90% or more (almost completely withered)) | F: southern crabgrass, herbicidal effect grade (southern crabgrass [15]; [21]): 5 (Herbicidal rate of 90% or more (almost completely withered)) | Herbicidal effect, C: oval-leafed pondweed (oval-leafed pondweed [16]): 0 (Herbicidal rate of 5% or less (almost no effect)) | herbicidal effect, O: lambsquarters (lambsquarters [17]): 4 (Herbicidal rate of 70% or more and less than 90%) | Herbicidal effect, A: late watergrass (late watergrass [18]): 3 (Herbicidal rate of 40% or more and less than 70%) | Herbicidal effect, B: Japanese bulrush (Japanese bulrush [19]): 0 (Herbicidal rate of 5% or less (almost no effect))

CCCC(=O)Oc1c(C)nn(C)c(=O)c1-c1c(-c2ccc(C(F)(F)F)cc2)sc2cc(F)c(F)cc12 [5-008]
herbicidal effect on Chinese sprangletop (D) (Chinese sprangletop; 320 g/ha): 0 (Herbicidal rate of 5% or less (almost no effect)) | Herbicidal effect by foliage application, J: blackgrass (blackgrass): 0 (Herbicidal rate of 5% or less (almost no effect)) | herbicidal effect on rice flat sedge (E) (rice flat sedge; 320 g/ha): 0 (Herbicidal rate of 5% or less (almost no effect)) | Herbicidal effect by foliage application, O: lambsquarters (lambsquarters [3]; [22]): 3 (Herbicidal rate of 40% or more and less than 70%) | Herbicidal effect by foliage application, R: persian speedwell (persian speedwell): 3 (Herbicidal rate of 40% or more and less than 70%) | herbicidal effect rating, B: Japanese bulrush (Japanese bulrush [6]): 0 (Herbicidal rate of 5% or less (almost no effect)) | Herbicidal effect by foliage application, L: windgrass (windgrass): 1 (Herbicidal rate of 5% or more and less than 20%) | Herbicidal effect by foliage application, G: green foxtail (green foxtail [7]; [22]): 0 (Herbicidal rate of 5% or less (almost no effect)) | herbicidal effect rating, A: late watergrass (late watergrass [8]): 2 (Herbicidal rate of 20% or more and less than 40%) | Herbicidal effect by foliage application, H: barnyard grass (barnyard grass [9]; [22]): 0 (Herbicidal rate of 5% or less (almost no effect)) | herbicidal effect rating, C: oval-leafed pondweed (oval-leafed pondweed [10]): 0 (Herbicidal rate of 5% or less (almost no effect)) | Herbicidal effect by foliage application, N: redroot pigweed (redroot pigweed [11]; [22]): 3 (Herbicidal rate of 40% or more and less than 70%) | Herbicidal effect by foliage application, M: velvetleaf (velvetleaf [13]; [22]): 0 (Herbicidal rate of 5% or less (almost no effect)) | herbicidal effect on barnyard grass (H) (barnyard grass [14]; 320 g/ha): 4 (Herbicidal rate of 70% or more and less than 90%) | Herbicidal effect by foliage application, F: southern crabgrass (southern crabgrass [15]; [22]): 0 (Herbicidal rate of 5% or less (almost no effect)) | Herbicidal effect, C: oval-leafed pondweed (oval-leafed pondweed [16]): 0 (Herbicidal rate of 5% or less (almost no effect)) | Herbicidal effect by foliage application, I: wild oat (wild oat): 0 (Herbicidal rate of 5% or less (almost no effect)) | Herbicidal effect by foliage application, P: chickweed (chickweed): 4 (Herbicidal rate of 70% or more and less than 90%) | Herbicidal effect, A: late watergrass (late watergrass [18]): 3 (Herbicidal rate of 40% or more and less than 70%) | Herbicidal effect, B: Japanese bulrush (Japanese bulrush [19]): 0 (Herbicidal rate of 5% or less (almost no effect))
